The source of these data is patent US5616712A, “Acetylenes disubstituted with a phenyl or heteroaryl group and a 2-thio-1,2,3,4-tetrahdroquinolinyl, 2-alkylthio-3,4-dihydroquinolinyl or 2-alkoxy-3,4-dihydroquinolinyl group having retinoid-like biological activity” (Allergan, priority 1995, dated 1997).

One may read the IC80 as the concentration at which the effect reaches the 80% level. Lower therefore signals an effect from little substance.

Test [1] relates to ornithine decarboxylase (ODC). The test can be described thus: Inhibition of TPA induction of ornithine decarboxylase (ODC) (Table 2). It counts as cell-based. The settings on record: concentration which results in 80 per cent inhibition of the ODC induction activity by TPA. An excerpt:
The retinoid-like activity of these compounds is confirmed through the classic measure of retinoic acid activity involving the effects of retinoic acid on ornithine decarboxylase. The original work on the correlation between retinoic acid and decrease in cell proliferation was done by Verma & Boutwell, Cancer Research, 1977, 37,2196-2201. That reference discloses that ornithine decarboxylase (ODC) activity increased precedent to polyamine biosynthesis. It has been established elsewhere that increases. in polyamine synthesis can be correlated or associated with cellular proliferation. Thus, if ODC activity could be inhibited, cell hyperproliferation could be modulated. […] IC80 is that concentration of the test compound (expresed in nanomolar (nmol)) which results in 80 per cent inhibition of the ODC induction activity by TPA.

The test system of test [2] is ornithine decarboxylase (ODC). The conditions noted are these: qualitative; cited from earlier work.

In turn, `CCOC(=O)c1ccc(C#Cc2ccc3c(c2)C(C)(C)CC(=S)N3C(C)C)cc1` [Compound 7, Ethyl 4-[(4,4-dimethyl-2-thio-1,2,3,4-tetrahydro-1-iso-propyl-6-quinolinyl)ethynyl]benzoate] displayed an IC80 in test [1] of 5.5 nM.

For the compound `CCCCCCCSC1=Nc2ccc(C#Cc3ccc(C(=O)OCC)cc3)cc2C(C)(C)C1` [Compound 10, Ethyl 4-[(4,4-dimethyl-2-heptylthio-3,4-dihydro-6-quinolinyl)ethynyl]benzoate], the IC80 in test [1] is over 60 nM. With `CCOC(=O)c1ccc(C#Cc2ccc3c(c2)C(C)(C)CC(SC)=N3)cc1` [Compound 9, Ethyl 4-[(4,4-dimethyl-2-methylthio-3,4-dihydro-6-quinolinyl)ethynyl]benzoate], the IC80 in test [1] was determined as 29 nM. In test [1], `CCOC(=O)c1ccc(C#Cc2ccc3c(c2)C(C)(C)CC(OC(C)C)=N3)cc1` [Compound 6, Ethyl 4-[(4,4-dimethyl-2-isopropoxy-3,4-dihydro-6-quinolinyl)ethynyl]benzoate] showed an IC80 of over 100 nM. For the compound `CC1=C(/C=C/C(C)=C/C=C/C(C)=C/C(=O)O)C(C)(C)CCC1` [Retinoic acid], the “inhibition of TPA induction of ODC activity” value in test [2] is “inhibits this induction of ODC activity by TPA”. `CCOC(=O)c1ccc(C#Cc2ccc3c(c2)C(C)(C)CC(=S)N3)cc1` [Compound 8, Ethyl 4-[(4,4-dimethyl-2-thio-1,2,3,4-tetrahydro-6quinolinyl)ethynyl]benzoate] showed an IC80 in test [1] of 54 nM. The same measure, in the same setting: the figure for `CCOC(=O)c1ccc(C#Cc2ccc3c(c2)C(C)(C)CC(=O)N3C(C)C)cc1` [Compound 5] is 6.4 nM. For the compound `CCCCCCCCCCCCCC(=O)O[C@@H]1[C@@H](C)[C@@]2(O)[C@@H](C=C(CO)C[C@]3(O)C(=O)C(C)=C[C@@H]23)[C@@H]2C(C)(C)[C@]12OC(C)=O` [12-0-tetradecanoylphorbol-13-acetate], the “induction of ODC activity” value in test [2] was “induces ODC activity”.
